Structures are written as SMILES.

For one assay, the system named is recombinant NL4-3 virus (Renilla luciferase in nef, Gag P373S; NLRluc) in MT-2 cells. Nature of the assay: whole plant or invertebrate. The assay is classed as cell-based, HIV. The note with it: Renilla, NL43, luciferase activity in cells infected for 4-5 days with NLRluc recombinants, serial dilutions of inhibitor; class symbols (key in Table 1); read-out: EC50. In outline:
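Cells grown in serum-supplemented RPMI were exposed to graded inhibitor concentrations during a 4-5 day infection. Antiviral effect was then derived from luminescence after adding a combined lysis and dual-luciferase substrate mixture to each well.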
As usually defined, the EC50 is the midpoint of the concentration-response curve. Consider `C=C(C)[C@@H]1CC[C@]2(NCCNc3cccnc3)CC[C@]3(C)[C@H](CC[C@@H]4[C@@]5(C)CC=C(c6ccc(C(=O)O)cc6)C(C)(C)[C@@H]5CC[C@]43C)[C@@H]12` [Example 189, 4-((1R,3aS,5aR,5bR,7aR,11aS,11bR,13aR,13bR)-5a,5b,8,8,11a-pentamethyl-1-(prop-1-en-2-yl)-3a-(2-(pyridin-3-ylamino)ethylamino)-2,3,3a,4,5,5a,5b,6,7,7a,8,11,11a,11b,12,13,13a,13b-octadecahydro-1H-cyclopenta[a]chrysen-9-yl)benzoic acid], for which the EC50 was less than 0.1 µM.
For the molecule `C=C(C)[C@@H]1CC[C@]2(NCCNc3ccncc3)CC[C@]3(C)[C@H](CC[C@@H]4[C@@]5(C)CC=C(c6ccc(C(=O)O)cc6)C(C)(C)[C@@H]5CC[C@]43C)[C@@H]12` [Example 190, 4-((1R,3aS,5aR,5bR,7aR,11aS,11bR,13aR,13bR)-5a,5b,8,8,11a-pentamethyl-1-(prop-1-en-2-yl)-3a-(2-(pyridin-4-ylamino)ethylamino)-2,3,3a,4,5,5a,5b,6,7,7a,8,11,11a,11b,12,13,13a,13b-octadecahydro-1H-cyclopenta[a]chrysen-9-yl)benzoic acid], the EC50 was less than 0.1 µM.
With `C=C(C)[C@@H]1CC[C@]2(NCCNc3nccn3C)CC[C@]3(C)[C@H](CC[C@@H]4[C@@]5(C)CC=C(c6ccc(C(=O)O)cc6)C(C)(C)[C@@H]5CC[C@]43C)[C@@H]12` [Example 191, 4-((1R,3aS,5aR,5bR,7aR,11aS,11bR,13aR,13bR)-5a,5b,8,8,11a-pentamethyl-3a-(2-(1-methyl-1H-imidazol-2-ylamino)ethylamino)-1-(prop-1-en-2-yl)-2,3,3a,4,5,5a,5b,6,7,7a,8,11,11a,11b,12,13,13a,13b-octadecahydro-1H-cyclopenta[a]chrysen-9-yl)benzoic acid], the EC50 was less than 0.1 µM.
For the molecule `C=C(C)[C@@H]1CC[C@]2(NCCNc3ccccc3)CC[C@]3(C)[C@H](CC[C@@H]4[C@@]5(C)CC=C(c6ccc(C(=O)O)cc6)C(C)(C)[C@@H]5CC[C@]43C)[C@@H]12` [Example 192, 4-((1R,3aS,5aR,5bR,7aR,11aS,11bR,13aR,13bR)-5a,5b,8,8,11a-pentamethyl-3a-(2-(phenylamino)ethylamino)-1-(prop-1-en-2-yl)-2,3,3a,4,5,5a,5b,6,7,7a,8,11,11a,11b,12,13,13a,13b-octadecahydro-1H-cyclopenta[a]chrysen-9-yl)benzoic acid], the half-maximal effective concentration (EC50) was less than 0.1 µM.

The same assay, now with this note: Renilla, NL43, luciferase activity in cells infected for 4-5 days with NLRluc recombinants, serial dilutions of inhibitor; numeric values; read-out: EC50.
For `C=C(C)[C@@H]1CC[C@]2(NCCNc3ccccn3)CC[C@]3(C)[C@H](CC[C@@H]4[C@@]5(C)CC=C(c6ccc(C(=O)O)cc6)C(C)(C)[C@@H]5CC[C@]43C)[C@@H]12` [Example 188, 4-((1R,3aS,5aR,5bR,7aR,11aS,11bR,13aR,13bR)-5a,5b,8,8,11a-pentamethyl-1-(prop-1-en-2-yl)-3a-(2-(pyridin-2-ylamino)ethylamino)-2,3,3a,4,5,5a,5b,6,7,7a,8,11,11a,11b,12,13,13a,13b-octadecahydro-1H-cyclopenta[a]chrysen-9-yl)benzoic acid], the 50% effective concentration (EC50) stood at 0.001 µM.
With `C=C(C)[C@@H]1CC[C@]2(NCCNc3nccs3)CC[C@]3(C)[C@H](CC[C@@H]4[C@@]5(C)CC=C(c6ccc(C(=O)O)cc6)C(C)(C)[C@@H]5CC[C@]43C)[C@@H]12` [Example 193, 4-((1R,3aS,5aR,5bR,7aR,11aS,11bR,13aR,13bR)-5a,5b,8,8,11a-pentamethyl-1-(prop-1-en-2-yl)-3a-(2-(thiazol-2-ylamino)ethylamino)-2,3,3a,4,5,5a,5b,6,7,7a,8,11,11a,11b,12,13,13a,13b-octadecahydro-1H-cyclopenta[a]chrysen-9-yl)benzoic acid], the concentration giving a half-maximal response (EC50) was 0.02 µM.
